Assay results as given in patent US20040039211A1, “Tetrapyrroles” (DUKE UNIVERSITY AND NATIONAL JEWISH MEDICAL AND RESEARCH …, priority 2000, published 2004).

Key:
[1] = Cyclic voltammetry, metal-centered redox potential; type: physicochemical; settings: 90/10 (v/v) methanol/aqueous solution, pH* 7.9
Procedure: Manganese(III) Salen. The compound was prepared by the published procedure (Boucher, J. lnorg. Nucl. Chem. 36:531 (1974)). The uv/vis in water: ε235=3.70×10^4 cm^−1 M^−1, ε279=1.70×10^4 cm^−1 M^−1, ε397=4.60×10^3 cm^−M^−1. The elemental analysis: Anal. Calcd for Mn^IIIsalenCl, C16H14N2O2MnCl: C, 53.88; H, 3.96; N; 7.85. Found: C, 54.02; H, 4.06; N, 7.85. […] Based on the E1/2 of Mn^IIITM-2-PyP^5+, ferrocenemethanol and of K3Fe(CN)6 in water and methanol, the redox potential of Mn^III salen^+ in water was calculated to be E1/2=−0.13 V vs NHE.
Electrochemistry of the Manganese(III) Biliverdin Dimethylester. Measurements were made using a CH Instruments model 600 voltammetric analyzer as described previously(Batinic-Haberle et al, Inorg. Chem. 38:4011 (1999)). A three-electrode system in a small volume (0.5-3.0 mL), with a 3 mm diameter glassy carbon button working electrode (Bioanalytical Systems), Ag/AgCl reference electrode (3 M NaCl, Bioanalytical Systems), and a Pt wire (0.5 mm) as auxiliary electrode, were used. The cyclic votammetry was performed on 0.5 mM (per manganese) methanol/aqueous (90/10, v/v) solutions of the compounds investigated. The ionic strength was kept at 0.10 M (NaCl), and 0.05 M tris buffer was used for pH^* adjustment. For calibration purposes, compounds of different hydrophilicities, […], (Kolthof et al, J. Phys. Chem. 39:945 (1935)) ferrocenemethanol and Mn^IIITM-2-PyP^5+ were studied in both aqueous and methanol/aqueous (90/10, v/v) solutions (I=0.10 M NaCl, 0.05 M tris buffer, pH^* 7.9). In all cases the measured E1/2 was 170 mV more positive in methanolic than in aqueous solution and this value was used to predict the redox potential in aqueous solution from measurement in methanol/aqueous solution.

[2] = system: SOD-deficient E. coli JI132; assay: Aerobic growth of SOD-deficient E. coli in minimal medium; type: cell-based
Procedure: FIG. 13. […] The 20 mM ethanolic/albumin solution of compound was diluted into the medium. Also the growth of SOD-deficient E. coli was followed in the presence of 0.15% ethanol only (squares).
SOD activity can be monitored in the presence and absence of EDTA using the method of McCord and Fridovich (J. Biol. Chem. 244:6049 (1969)). The efficacy of a mimetic can also be determined by measuring the effect of the mimetic on the aerobic growth of a SOD null E. coli strain versus a parent strain. Specifically, parental E. coli (AB1157) and SOD null E. coli. […]
Effects on E. coli. E. coli strains AB1157 (SOD-proficient, wild type) and JI132 (SOD-deficient, sodAsodB) were obtained from J. A. Imlay (Imlay et al, J. Bacteriol. 169:2967 (1987)). […] Cultures were treated as previously described (Faulkner et al, J. Biol. Chem. 269:23471 (1994); Benov et al, J. Biol. Chem. 273:10313 (1998)). Due to the low water solubility, the compounds were solubilized with albumin in medium at a 1:1 molar ratio. Albumin itself had no effect on growth in the concentration range employed. Since methanol was toxic to the SOD-deficient strain of E. coli even when present in medium at 0.15%, the stock solutions of the compounds were prepared in ethanol.

[3] = Stability in the presence of excess EDTA (uv/vis); type: physicochemical
Procedure: Uv/vis Spectroscopy. […] Also the effects of EDTA, H2O2, and the methanol/water ratio on the stability of the manganese(III) complex were examined. […] […] 79:699 (1960)). When needed the biliverdin and biliverdin dimethylester as well as their reduced forms bilirubin and bilirubin dimethylester were studied. […] In a week, at 25° C., only 14% of the complex dissociated. When the water content was increased to 43%, half the complex dissociated in a week.

## Manganese(III) Biliverdin IX Dimethylester [{Mn^IIIBVDME}2]
[1]; Mn(III)/Mn(II) couple
  E1/2, V vs Ag/AgCl: −0.32 V vs Ag/AgCl
[1]; Mn(III)/Mn(IV) couple
  E1/2, V vs Ag/AgCl: +0.36 V vs Ag/AgCl
[1]; Mn(III)/Mn(IV) couple, listed as ½ {Mn^III/IVBVDME^0/−}2
  E1/2, V vs Ag/AgCl: −0.36 V vs Ag/AgCl
[2]; 13 μM, after 15 hours, SOD-proficient 100%, SOD-deficient without compound 16%
  growth of SOD-deficient E. coli: 50%
[2]; 0.1 to 13 μM in minimal medium
  growth of SOD-deficient E. coli (in words): markedly improved
[2]; minimal (five amino acids) medium
  effect on SOD-deficient E. coli growing under aerobic conditions (in words): significant protection
[3]; 1 μM, 900-fold excess EDTA (0.9 mM), 2-4 hours, 25° C., methanol/aqueous (90/10), 0.05 M tris, pH* 7.9
  stability in the presence of EDTA: stable
[3]; 20 μM, 900-fold excess of EDTA, pH 7.8
  stability in the presence of EDTA: stable
